Source: ChEMBL document CHEMBL1201862, “PubChem BioAssay data set” (2004)
“And” between values parts separate entries of the source, which are not always exact repeats. Equal values may be shown once.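 1) Cells in 96-well plates. 2) Compound, 48 h, 5 concentrations. 3) Linear interpolation between surrounding doses. 4) Unreached endpoint = highest concentration. The concentration for 50% growth inhibition is given as GI50.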 The source made the active and inactive calls. Cut-off read from the data, not from the text of the source: active = GI50 up to about 1.1 µM and inactive = higher.

Key:
Assay in all cases: DTP human tumour cell line panel, 48 h
COLO 205 = system: COLO 205
SK-MEL-5 = system: SK-MEL-5
M14 = system: M14
HOP-92 = system: HOP-92
SR = system: SR
OVCAR-5 = system: OVCAR-5
HT-29 = system: HT-29
OVCAR-8 = system: OVCAR-8
SW-620 = system: SW-620
LXFL 529 = system: LXFL 529
OVCAR-4 = system: OVCAR-4
SK-MEL-28 = system: SK-MEL-28
NCI-H522 = system: NCI-H522
DLD-1 = system: DLD-1
ACHN = system: ACHN
SK-MEL-2 = system: SK-MEL-2
EKVX = system: EKVX
NCI-H226 = system: NCI-H226
K562 = system: K562
OVCAR-3 = system: OVCAR-3
KM12 = system: KM12
A498 = system: A498
MOLT-4 = system: MOLT-4
DMS-114 = system: DMS-114
KM-20L2 = system: KM-20L2
NCI-H460 = system: NCI-H460
HCT-116 = system: HCT-116
Malme-3M = system: Malme-3M
UO-31 = system: UO-31
UACC-257 = system: UACC-257
UACC-62 = system: UACC-62
SK-OV-3 = system: SK-OV-3
IGROV-1 = system: IGROV-1
SF-295 = system: SF-295
CCRF-CEM = system: CCRF-CEM
786-0 = system: 786-0
HCT-15 = system: HCT-15
HOP-18 = system: HOP-18
NCI-H23 = system: NCI-H23
CAKI-1 = system: CAKI-1
SNB-19 = system: SNB-19
SN12C = system: SN12C
A549 = system: A549
DMS-273 = system: DMS-273
U-251 = system: U-251
HL-60 = system: HL-60
HCC 2998 = system: HCC 2998
LOX IMVI = system: LOX IMVI
TK-10 = system: TK-10
SF-539 = system: SF-539
SNB-75 = system: SNB-75
HOP-62 = system: HOP-62
SNB-78 = system: SNB-78
SF-268 = system: SF-268
RPMI-8226 = system: RPMI-8226
RXF 393 = system: RXF 393
M19-MEL = system: M19-MEL

## COC(=O)C1Cc2c([nH]c3ccccc23)C(c2ccccc2O)N1 (centres undefined)
COLO 205
  GI50: 35.3 µM (inactive)
SK-MEL-5
  GI50: 59 µM (inactive)
M14
  GI50: 93.8 µM (inactive)
HOP-92
  GI50: > 100 µM (inactive)
SR
  GI50: > 100 µM (inactive)
OVCAR-5
  GI50: > 100 µM (inactive)
HT-29
  GI50: 44.9 µM (inactive)
OVCAR-8
  GI50: 68.1 µM (inactive)
SW-620
  GI50: > 100 µM (inactive)
LXFL 529
  GI50: 62.7 µM (inactive)
OVCAR-4
  GI50: 53.5 µM (inactive)
SK-MEL-28
  GI50: > 100 µM (inactive)
NCI-H522
  GI50: 32.4 µM (inactive)
DLD-1
  GI50: 42.9 µM (inactive)
ACHN
  GI50: 58.1 µM (inactive)
SK-MEL-2
  GI50: > 100 µM (inactive)
EKVX
  GI50: > 100 µM (inactive)
NCI-H226
  GI50: > 100 µM (inactive)
K562
  GI50: 50 µM (inactive)
OVCAR-3
  GI50: 49.7 µM (inactive)
KM12
  GI50: 60.3 µM (inactive)
A498
  GI50: 21.3 µM (inactive)
MOLT-4
  GI50: 41.9 µM (inactive)
DMS-114
  GI50: 58.1 µM (inactive)
KM-20L2
  GI50: 95.5 µM (inactive)
NCI-H460
  GI50: 18.5 µM (inactive)
HCT-116
  GI50: 66.8 µM (inactive)
Malme-3M
  GI50: > 100 µM (inactive)
UO-31
  GI50: 43.1 µM (inactive)
UACC-257
  GI50: 84.1 µM (inactive)
UACC-62
  GI50: 35.4 µM (inactive)
SK-OV-3
  GI50: > 100 µM (inactive)
IGROV-1
  GI50: 33.8 µM (inactive)
SF-295
  GI50: 78.5 µM (inactive)
CCRF-CEM
  GI50: 45.4 µM (inactive)
786-0
  GI50: 69.8 µM (inactive)
HCT-15
  GI50: 30.5 µM
HOP-18
  GI50: > 100 µM (inactive)
NCI-H23
  GI50: 52 µM (inactive)
CAKI-1
  GI50: 98.6 µM (inactive)
SNB-19
  GI50: > 100 µM (inactive)
SN12C
  GI50: 55.2 µM (inactive)
A549
  GI50: 43 µM (inactive)
DMS-273
  GI50: 60.4 µM (inactive)
U-251
  GI50: > 100 µM (inactive)
HL-60
  GI50: 28.5 µM (inactive)
HCC 2998
  GI50: 60.1 µM (inactive)
LOX IMVI
  GI50: 60.8 µM (inactive)
TK-10
  GI50: 52 µM (inactive)
SF-539
  GI50: 34.1 µM (inactive)
SNB-75
  GI50: 88.1 µM (inactive)

## Cc1ccc(S(=O)(=O)ON=C2CC(c3ccccc3)N(C)C(c3ccccc3)C2)cc1 (centres undefined)
COLO 205
  GI50: 15.6 µM (inactive) and 14.8 µM (inactive)
SK-MEL-5
  GI50: 17.4 µM (inactive) and 16.3 µM (inactive)
M14
  GI50: 19.4 µM (inactive) and 17.2 µM (inactive)
HOP-92
  GI50: 15.9 µM (inactive) and 15.3 µM (inactive)
HOP-62
  GI50: 29 µM (inactive) and 29.8 µM (inactive)
SR
  GI50: 16.9 µM (inactive) and 21.5 µM (inactive)
OVCAR-5
  GI50: 20.8 µM (inactive)
HT-29
  GI50: 20 µM (inactive) and 20.9 µM (inactive)
OVCAR-8
  GI50: 17.6 µM (inactive) and 16.9 µM (inactive)
SW-620
  GI50: 17.9 µM (inactive) and 15.5 µM (inactive)
LXFL 529
  GI50: 15.6 µM (inactive) and 16.6 µM (inactive)
SNB-78
  GI50: 19.1 µM (inactive) and 23.1 µM (inactive)
OVCAR-4
  GI50: 18.7 µM (inactive) and 17.4 µM (inactive)
SF-268
  GI50: 22.8 µM (inactive) and 23.4 µM (inactive)
SK-MEL-28
  GI50: 23.8 µM (inactive) and 22.9 µM (inactive)
NCI-H522
  GI50: 14.2 µM (inactive) and 12.1 µM (inactive)
ACHN
  GI50: 19.8 µM (inactive)
RPMI-8226
  GI50: 18.3 µM (inactive)
SK-MEL-2
  GI50: 15 µM (inactive)
EKVX
  GI50: 36.2 µM (inactive) and 35.2 µM (inactive)
NCI-H226
  GI50: 28.7 µM (inactive) and 23.6 µM (inactive)
OVCAR-3
  GI50: 19.5 µM (inactive) and 20 µM (inactive)
RXF 393
  GI50: 20.2 µM (inactive) and 18.8 µM (inactive)
KM12
  GI50: 16.4 µM (inactive)
A498
  GI50: 24.3 µM (inactive)
MOLT-4
  GI50: 17.9 µM (inactive) and 20.6 µM (inactive)
DMS-114
  GI50: 14.7 µM (inactive)
KM-20L2
  GI50: 23 µM (inactive) and 18.4 µM (inactive)
NCI-H460
  GI50: 19.2 µM (inactive) and 20.7 µM (inactive)
HCT-116
  GI50: 15.9 µM (inactive) and 14.2 µM (inactive)
Malme-3M
  GI50: 25.5 µM (inactive) and 21.1 µM (inactive)
UO-31
  GI50: 15.6 µM (inactive) and 16.9 µM (inactive)
UACC-257
  GI50: 18.9 µM (inactive) and 19.3 µM (inactive)
UACC-62
  GI50: 16.1 µM (inactive)
SK-OV-3
  GI50: 22.5 µM (inactive) and 21.8 µM (inactive)
IGROV-1
  GI50: 23.5 µM (inactive) and 21.4 µM (inactive)
SF-295
  GI50: 25.9 µM (inactive) and 25.1 µM (inactive)
CCRF-CEM
  GI50: 18.5 µM (inactive) and 25.2 µM (inactive)
M19-MEL
  GI50: 20.8 µM (inactive) and 21.7 µM (inactive)
786-0
  GI50: 21.2 µM (inactive) and 22.9 µM (inactive)
HCT-15
  GI50: 16.7 µM and 18.5 µM
NCI-H23
  GI50: 25.2 µM (inactive) and 19.9 µM (inactive)
CAKI-1
  GI50: 24.6 µM (inactive) and 15.6 µM (inactive)
SNB-19
  GI50: 25.8 µM (inactive) and 32.7 µM (inactive)
SN12C
  GI50: 23.6 µM (inactive)
A549
  GI50: 23.2 µM (inactive) and 20.6 µM (inactive)
DMS-273
  GI50: 20.7 µM (inactive) and 19.5 µM (inactive)
U-251
  GI50: 23.3 µM (inactive) and 21.1 µM (inactive)
HCC 2998
  GI50: 16.6 µM (inactive)
LOX IMVI
  GI50: 13.5 µM (inactive) and 14 µM (inactive)
TK-10
  GI50: 21.8 µM (inactive) and 20.6 µM (inactive)
SF-539
  GI50: 17.1 µM (inactive)
SNB-75
  GI50: 23.6 µM (inactive) and 26 µM (inactive)

## COc1ccc(-c2cc(-c3ccco3)c(C#N)c(=O)n2C2OC(COC(C)=O)C(OC(C)=O)C(OC(C)=O)C2OC(C)=O)cc1 (centres undefined)
COLO 205
  GI50: > 100 µM (inactive)
SK-MEL-5
  GI50: > 100 µM (inactive)
HOP-92
  GI50: 24.9 µM (inactive) and 22.1 µM (inactive)
SR
  GI50: > 100 µM (inactive)
OVCAR-5
  GI50: > 100 µM (inactive)
SW-620
  GI50: > 100 µM (inactive)
LXFL 529
  GI50: 11.4 µM (inactive)
SNB-78
  GI50: > 100 µM (inactive)
OVCAR-4
  GI50: > 100 µM (inactive)
DLD-1
  GI50: 50.9 µM (inactive)
RPMI-8226
  GI50: 5.58 µM (inactive) and 3.96 µM (inactive)
EKVX
  GI50: > 100 µM (inactive)
NCI-H226
  GI50: 2.63 µM (inactive)
KM12
  GI50: 69.7 µM (inactive)
MOLT-4
  GI50: > 100 µM (inactive)
KM-20L2
  GI50: > 100 µM (inactive)
UACC-257
  GI50: > 100 µM (inactive)
M19-MEL
  GI50: 76 µM (inactive)
NCI-H23
  GI50: > 100 µM (inactive)
CAKI-1
  GI50: > 100 µM (inactive) and 63.5 µM (inactive)
A549
  GI50: > 100 µM (inactive)
DMS-273
  GI50: > 100 µM (inactive)
HCC 2998
  GI50: > 100 µM (inactive)
TK-10
  GI50: 20 µM (inactive) and 28.1 µM (inactive)
SNB-75
  GI50: > 100 µM (inactive) and 58.9 µM (inactive)

## CCSc1nc2cccc([N+](=O)[O-])c2n1CC
COLO 205
  GI50: > 100 µM (inactive)
SK-MEL-5
  GI50: > 100 µM (inactive)
M14
  GI50: > 100 µM (inactive)
HOP-92
  GI50: > 100 µM (inactive)
HT-29
  GI50: > 100 µM (inactive)
OVCAR-8
  GI50: > 100 µM (inactive)
SW-620
  GI50: > 100 µM (inactive)
LXFL 529
  GI50: > 100 µM (inactive)
SNB-78
  GI50: > 100 µM (inactive)
OVCAR-4
  GI50: > 100 µM (inactive)
SK-MEL-28
  GI50: > 100 µM (inactive)
NCI-H522
  GI50: > 100 µM (inactive)
DLD-1
  GI50: > 100 µM (inactive)
RPMI-8226
  GI50: > 100 µM (inactive)
EKVX
  GI50: > 100 µM (inactive)
NCI-H226
  GI50: > 100 µM (inactive)
K562
  GI50: > 100 µM (inactive)
OVCAR-3
  GI50: > 100 µM (inactive)
RXF 393
  GI50: > 100 µM (inactive)
KM12
  GI50: > 100 µM (inactive)
MOLT-4
  GI50: > 100 µM (inactive)
DMS-114
  GI50: > 100 µM (inactive)
NCI-H460
  GI50: > 100 µM (inactive)
UACC-257
  GI50: > 100 µM (inactive)
UACC-62
  GI50: > 100 µM (inactive)
SK-OV-3
  GI50: > 100 µM (inactive)
IGROV-1
  GI50: > 100 µM (inactive)
CCRF-CEM
  GI50: > 100 µM (inactive)
NCI-H23
  GI50: > 100 µM (inactive)
CAKI-1
  GI50: > 100 µM (inactive)
SNB-19
  GI50: > 100 µM (inactive)
A549
  GI50: > 100 µM (inactive)
DMS-273
  GI50: > 100 µM (inactive)
U-251
  GI50: > 100 µM (inactive)
HL-60
  GI50: > 100 µM (inactive)
HCC 2998
  GI50: > 100 µM (inactive)
LOX IMVI
  GI50: > 100 µM (inactive)
TK-10
  GI50: > 100 µM (inactive)
SF-539
  GI50: > 100 µM (inactive)
SNB-75
  GI50: > 100 µM (inactive)
